Assays:
[1] = Critical micellar concentration by Nile red fluorescence; assay type: physicochemical
Description: We characterized the critical micellar concentration (CMC) of the polymers to evaluate their ability to self-assemble into polymolecular structures.
Nile red can be used to measure the CMC of surfactants and polymolecular architectures by following the fluorescence of the dye: the critical micelle concentration coincides with a strong increase in the intensity of the fluorescence (λex/em: 549/628 nm). Serial dilutions of polymers were made in the range of 2.5 to 7×10^−4 mg/mL. 200 μL of each sample were used with 10 μL of Nile Red solution in methanol (1×10^−5 M). Fluorescence was read in a 96-well plate (λex/em: 549/628 nm).

[2] = mouse, in vivo, iv
Description: The impact of CTA-PGMA-DODA and PMGA-DODA on the circulation profile of radiolabeled [^14C]-liposomes was studied in healthy Balb/c mice. In this study, the concentrations of radiolabeled liposomes in the blood were monitored for 6 hours after intravenous injection.
Healthy animals were housed in a controlled environment (22° C., 12 hours day/night cycle) with ad libitum access to food and water. A total of 11 healthy male mice were divided in three groups (3-3-5). As a blank, liposomes without polymer on the surface were injected intravenously by the subclavian vein at a concentration of 2 mg/kg of phospholipids. Approximately 30-50 μL of blood was collected at various times (0.25, 0.5, 1, 2, 4, 6 Hours). Six hours post-injection, blood was collected by cardiac puncture for a terminal timepoint. Animals were euthanized by a cardiac perfusion with 3 mL of isotonic phosphate-buffered saline solution pH=7.2 (potassium phosphate 1.1 mmol/L, NaCl 150 mmol/L, disodium phosphate 3 mmol/L) and organs were collected. Biological samples were digested at 58° C. (in Solvable®, Perkin Elmer®), bleached with 30% hydrogen peroxide, and assessed by scintillation counting, using Hionic Fluor® (Perkin Elmer®) as a scintillation cocktail.

Row | CMC [1] [mg/mL] | AUC0-6 h of the control liposomes relative to the liposome formulation prepared with the named polymer [2] [fold] | Compound | effect on circulation time of liposomes [2]
1 | 2 |  | CCCCCCCCCCCCOS(=O)(=O)[O-].[Na+] [SDS, sodium dodecyl sulfate] | 
2 |  | 1.2 | DODA-Terminated Poly(Monoglycerol Acrylate) [PMGA-DODA6.5k] | do not seem to prolong the circulation time

Reference: patent US12668649B2, “Monoglycerol acrylate based polymer and uses thereof” (priority 2022, dated 2026)
